Literature values, collected in patent US20260284036A1 (priority 2023, published 2026).

Conditions: administered orally; significant first-pass metabolism

In the case of `C=CCN1CC[C@]23c4c5ccc(O)c4O[C@H]2C(=O)CC[C@@]3(O)[C@H]1C5` [naloxone], the apparent bioavailability is given as 1-2%.
